This is an account of results in patent publication US7524930B2, “Tumor antigen” (Green Peptide Co., Ltd, priority 2003, dated 2009).

Peptide text beside a SMILES is read from it.

Data set [1] has as its target T1, HLA-A0201 molecule (Homo sapiens, UniProt P04439, D140Y/D185E/D98H/E176V/E277Q/G131W/G231S/I119V/I121R/I166T/I218V/L300P/L318F/N151K/N90K/P208A/P217A/Q86G/Q94H/R138H/R169H/T345S).
T1 construct: endogenous in cells; host or cells: T2 cells (TAP-deficient mutant line)
Briefly: Binding activity of peptide to HLA-A0201 molecule on T2 cells (FACScan, MFI). The conditions noted are these: peptide 10 μM, positive and negative controls 898 and 490.
Experimental: Binding activity of the peptide to the HLA-A0201 molecule was tested using a T2 cell mutant strain (Cancer Res., 54:1071-1076, 1994. ) The T2 cell expresses the HLA-A2 molecule on a cell surface without binding to a peptide, because of deficiency of TAP. Specifically, the synthesized peptide (10 μM) and the T2 cells were incubated at 26° C. for 3 h and, subsequently, incubated in 5% CO2 and 95% air at 37° C. for 3 h.
Binding affinity of the peptides to HLA-A0201 molecule was expressed as a relative mean fluorescence intensity (MFI) of the HLA-A2 molecule.

The subject of data set [2] is peripheral blood mononuclear cells derived from a cancer patient. Briefly: CTL induction by peptide from autologous PBMC of cancer patient, IFN-γ production on recognition of target cells (Example 5). As to conditions: for IFN-γ production from peripheral blood mononuclear cells in recognition of target cells: PBMC stimulated with 10 μM peptide. It is filed as cell-based, human.

For data set [3] the test system is unchanged. The data set is described as above. It is filed as cell-based, human. As to conditions: PBMC stimulated with 10 μM peptide.
The subject of data set [4] is Panc-1 cells and YPK-3 cells. In words: 51Cr-releasing test of CTLs induced by KM-PA-2 peptides (Example 8). The conditions noted are these: result in words; for Lysis of HLA-A2- tumor cell and normal cells by peptide-induced CTLs: PaCa-2, EBV-B cell line OKAB2, PHA-stimulated T cells; for Lysis of HLA-A2+ tumor cells by peptide-induced CTLs: Panc-1 cells and YPK-3 cells. It is filed as cell-based, human. From the text: The ability of the synthesized peptide to induce CTL from the peripheral blood mononuclear cells of the colon cancer patient, from whom OK-CTLp was obtained, was examined in the same way as that in Example 6. As a result, as shown in FIGS. 20A-20B, PBMC that was stimulated in vitro using any one of peptides P33 to P41 (SEQ ID NO:33 to SEQ ID NO:41) derived from KM-PA-2 and peptides P42 to P44 (SEQ ID NO:42 to SEQ ID NO:44) derived from KM-PA-4, produced IFN-γ through recognition of the T2 cells (left-hand figure of FIGS. 20A-20B,) which were pulsed with the peptide corresponding to that used for stimulation of the PBMC, and the Panc-1 cell (right-hand of FIGS. 20A-20B,) which is the HLA-A2^+ tumor cell. However, the PBMC reacted […] to the HLA-A2^− tumor cell. […] In addition, cytotoxicity of these CTLs induced by the peptides was directly confirmed by the ^51Cr-releasing test in the same way as that in Example 6. FIGS. 21A-21C show a representative example of the result. As shown in FIGS. 21A-21C, CTLs induced from PBMC of the cancer patient by P35, P39, or P40 lysed Panc-1 cells and YPK-3 cells, both of which are HLA-A2^+ tumor cells. However, the HLA-A2^− tumor cell PaCa-2, the EBV-B cell line OKAB2, and the T cells stimulated by PHA, was not lysed.

Data set [5] concerns peripheral blood mononuclear cells derived from a cancer patient. It is filed as cell-based, human. As for the experimental part: Moreover, CTL-activating ability of these 19 peptides was directly examined in a ^51Cr-releasing test using toxicity to the target cells as an indicator. Specifically, the above-described PBMC, in which CTL was induced, was further recultured to proliferate in the presence of autologous APC, IL-2, and a corresponding peptide. At about day 21 to 28 after the start of reculturing, PBMC was collected and cytotoxicity thereof was tested again by measuring IFN-γ and by a 6-h ^51Cr-releasing test. PBMC of the cancer patient, which was stimulated by these peptides, lysed the HLA-A2^+ tumor cells. However, the autologous EBV-B cells and the T cells stimulated by PHA, both of which were derived from normal cells and were expressing HLA-A2, and the HLA-A2^− tumor cell RERF-LC-MS, were not lysed.

Data set [6] has as its system OK-CTLp. Briefly: IFN-γ production by OK-CTLp against COS-7 cells cotransfected with cDNA clone and HLA-A0207 cDNA (ELISA). Type of data set: cell-based, human. The conditions noted are these: result in words. The procedure: 200 ng of the above-described plasmid DNA pool or clones of Panc-1 cell cDNA library was mixed with 200 ng of the cDNA of HLA-A0207 in 100 μl of Opti-MEM (Invitrogen Corp.) for 30 min. 50 μl of this mixture was added to COS-7 cells (5×10^3) and incubated for 6 h in a 96-well U-bottom type microculture plate (Nunc Corp.) for co-tranduction. Then, RPMI-1640 culture medium containing 10% FCS was added to and culturing was carried out for 2 days, followed by the addition of OK-CTLp (5×10^4) to each well. After a further 18 h incubation, 100 μl of the supernatant was collected and IFN-γ production was measured thereon by ELISA. […]
From the genes encoding the tumor antigens (Biochim. Biophys. Res. Commun., 281:936-944, 2001), which were detected by the SEREX (Serological Analysis of Recombinant cDNA Expression Libraries) method (Proc. Natl Acad. Sci. USA, 92:11910-[…], 1995) and already reported, two tumor antigen genes, KM-PA-2 and KM-PA-4; which can activate HLA-A2-restricted CTL, were found by using the same method as that of Example 2. […] However, among 1500 or more kinds of tumor antigens detected by this method, those identified as tumor antigens capable of inducing both cell-mediated immunity and humoral immunity are only MAGE-1, tyrosinase, and NY-ESO-1. […]
For orientation: In an ELISA, binding on a coated surface is turned into a signal by an enzyme label.

With “LIADETSGL [Peptide P3, Gene 1 (UBE2V) 85-93]”, in data set [1], the “MFI (relative mean fluorescence intensity of the HLA-A2 molecule; binding affinity to HLA-A0201)” value stood at 910. In addition, in data set [2] (SW620, CA9-22 and Panc-1 HLA-A2+ tumor cells, result in words), the “Recognition of tumor cells by PBMC stimulated in vitro with peptide (IFN-γ production)” value was “produced IFN-γ in a significant amount”. Also, the “IFN-γ production from peripheral blood mononuclear cells in recognition of target cells” value is 58 pg/mL in data set [2] (target CA9-22 (HLA-A0207/24)); 289 pg/mL in data set [2] (target Panc-1 (HLA-A0201/11)); 188 pg/mL in data set [2] (target SW620 (HLA-A0201/24)); 44 pg/mL in data set [3] (target COLO320 (HLA-A24/24)); 0 pg/mL in data set [3] (target QG56 (HLA-A26/26)); 0 pg/mL in data set [3] (target RERF-LC-MS (HLA-A11/11)).

On to “WAQEDPNAV (Designed peptide having an ability to activate HLA-A2 restricted Cytotoxic T lymphocytes) [Peptide P35, KM-PA-2 172-180]”, for which, in data set [4], the “Lysis of HLA-A2- tumor cell and normal cells by peptide-induced CTLs” value is reported as “not lysed”; the “Lysis of HLA-A2+ tumor cells by peptide-induced CTLs” value (“Lysis of HLA-A2+ tumor cells” below) is “lysed”.

Turning to `CC[C@H](C)[C@H](NC(=O)[C@@H](NC(=O)[C@@H](N)CCCNC(=N)N)[C@@H](C)CC)C(=O)N[C@@H](Cc1ccc(O)cc1)C(=O)N[C@@H](CC(=O)O)C(=O)N[C@@H](CCCNC(=N)N)C(=O)N[C@@H](CCCCN)C(=O)N[C@@H](Cc1ccccc1)C(=O)N[C@@H](CC(C)C)C(=O)O` [Peptide P14] (H-RIIYDRKFL-OH), the “Cytotoxicity of peptide-stimulated PBMC to the autologous EBV-B cells” value (“Cytotoxicity … to the autologous EBV-B cells” below) in data set [5] was “showed cytotoxicity”.

Turning to “KM-PA-4: tumor antigen gene from CFPAC-1 (SEREX), 1841 bp, identical to coactosin-like protein (CLP)”, the “Recognition by OK-CTLp of COS-7 cells cotransfected with the cDNA and HLA-A0207 (IFN-γ production)” value in data set [6] is “induced IFN-γ production from OK-CTLp”.

Regarding `CC[C@H](C)[C@H](N)C(=O)N[C@H](C(=O)N[C@@H](Cc1ccc(O)cc1)C(=O)N[C@@H](CC(=O)O)C(=O)N[C@@H](CCCNC(=N)N)C(=O)N[C@@H](CCCCN)C(=O)N[C@@H](Cc1ccccc1)C(=O)N[C@@H](CC(C)C)C(=O)N[C@@H](CCSC)C(=O)O)[C@@H](C)CC` [Peptide P15] (H-IIYDRKFLM-OH), in data set [5], the “Cytotoxicity … to the autologous EBV-B cells” value is on record as “showed cytotoxicity”.

Take “LLQNPLLVPV (Designed peptide having an ability to activate HLA-A2 restricted Cytotoxic T lymphocytes) [Peptide P40, KM-PA-2 586-595]”: in data set [4], the “Lysis of HLA-A2- tumor cell and normal cells by peptide-induced CTLs” value is “not lysed”; the “Lysis of HLA-A2+ tumor cells” value is “lysed”.

Take `CC(C)C[C@H](NC(=O)[C@H](CCC(N)=O)NC(=O)[C@@H](N)CCC(N)=O)C(=O)N[C@@H](CS)C(=O)N[C@H](C(=O)N[C@@H](Cc1ccc(O)cc1)C(=O)N[C@@H](Cc1c[nH]c2ccccc12)C(=O)N[C@H](C(=O)N[C@H](C(=O)O)C(C)C)[C@@H](C)O)C(C)C` [Peptide P19] (H-QQLCVYWTV-OH): the “Cytotoxicity … to the autologous EBV-B cells” value in data set [5] is “showed high cytotoxicity”.

For `CC(C)C[C@H](NC(=O)CN)C(=O)N[C@@H](CC(C)C)C(=O)N[C@@H](Cc1ccccc1)C(=O)N[C@@H](CC(C)C)C(=O)N[C@@H](Cc1c[nH]cn1)C(=O)N[C@H](C(=O)N[C@@H](CCCNC(=N)N)C(=O)N[C@H](C(=O)O)[C@@H](C)O)[C@@H](C)O` [Peptide P17] (H-GLLFLHTRT-OH), the “Cytotoxicity … to the autologous EBV-B cells” value in data set [5] is reported as “showed cytotoxicity”.

Regarding “DLLQNPLLV (Designed peptide having an ability to activate HLA-A2 restricted Cytotoxic T lymphocytes) [Peptide P39, KM-PA-2 585-593]”, in data set [4], the “Lysis of HLA-A2- tumor cell and normal cells by peptide-induced CTLs” value is “not lysed”; the “Lysis of HLA-A2+ tumor cells” value was “lysed”.

Turning to “KM-PA-2: tumor antigen gene from CFPAC-1 (SEREX), 2060 bp [AB060694], homologous to KIAA0124 / Bop1”, in data set [6], the “Recognition by OK-CTLp of COS-7 cells cotransfected with the cDNA and HLA-A0207 (IFN-γ production)” value is reported as “induced IFN-γ production from OK-CTLp”.
